# Source: patent US10363229B2, “Methods and compositions for the treatment of cancer” (priority 2009, dated 2019)
# Tests used:
# [1] = tested on: Cloudman S-91 mouse melanoma cells (sub-clone M-3); test: Annexin V-FITC/propidium iodide apoptosis assay in melanoma cells; type: cell-based
# Procedure: Cloudman S-91 mouse melanoma cells (sub-clone M-3, CCL 53.1; American Type Culture Collection, Rockville, Md.) were grown in RMPI medium supplemented with 10% fetal bovine serum (Invitrogen, Inc) and 5% penicillin-streptomycin (Invitrogen, Inc). Mouse breast cancer cells (66Cl-1; American Type Culture Collection, Rockville, Md.) that are estrogen-receptor negative were grown in DMEM medium supplemented with 10% fetal bovine serum (Invitrogen, Inc) and 5% penicillin/streptomycin (Invitrogen, Inc). Human T-cell leukemic lymphocytes (CEM; American Type Culture Collection, Rockville, Md.) were grown in MEM medium supplemented with 7% fetal calf serum. Cultures were passaged twice a week.
# Early and late apoptosis was assessed with the Annexin V-FITC Apoptosis Detection Kit from PharMingen (Becton-Dickinson, San Diego, Calif.). Images were obtained at the Center for Cell Analysis and Modeling, University of Connecticut Health Center, Farmington, Conn., with an Axioplan CCD Microscope equipped with a 40×1.3 NA FL objective lens and Photometrics PXL-EEV37 high speed digital cooled CCD camera via Metamorph image acquisition and analysis software (Universal Imaging Corp., Downington, Pa.).
# M3 Cloudman melanoma cells were plated into culture dishes containing RPMI medium. After 24 hour media was changed to control medium (no drug) or to media containing different concentrations of methyl sulfone (1-10% methyl sulfone in RPMI medium). Cells were examined by live cell video microscopy immediately after adding drug and every 24 hours up to 144 hours.
# Briefly, melanoma cells (Cloudman M3 cell line) were plated at 10^5 cells/ml in RPMI medium. After 24 hours, medium was replaced with RPMI containing different concentrations (grams/volume) of MMS, MES and EES. After 24 hours, apoptosis was assayed using the Becton-Dickinson Annexin V-FITC/Propidium Iodide Kit and a Nikon fluorescent microscope as described by the manufacturer.
# p27 in melanoma cells = test: Immunofluorescence of p27; type: cell-based, mouse; conditions: cells treated with methyl sulfone
# Procedure: Cells were grown on 12 mm coverslips until 60 to 70% confluent. 2% methyl sulfone was added to half the coverslips and normal medium to other half. After 24, 48, and 96 hours, coverslips were placed in porcelain holders and incubated in 37° C. PBS for 30 seconds followed by incubation in 37° C. 4% paraformaldehyde for 10 minutes. Cells were washed in PBS for 5 minutes followed by incubation in 0.2% Triton X-100/PBS for 5 minutes at room temperature. Chicken serum ([…] in 1 ml PBS) was added to cells for 30 minutes. Cells were washed 3 times in 0.2% Triton X-100/PBS, 3 minutes each. Rabbit anti-p27 polyclonal antibody, (Santa Cruz Biotech, Calif.) was diluted 1/250 in 1% BSA/PBS and added to coverslips for 1.5 hours. Cells were washed 5 times in 0.2% Triton X-100/PBS, 3 minutes each. Secondary antibody, Alexa Fluor 488 chicken anti-rabbit antibody, was diluted 1/1000 in 1% BSA/PBS and added to coverslips for 30 minutes in the dark. Cells were washed five times in 0.2% Triton X-100/PBS, three minutes each. Cells were washed twice in PBS for two minutes each and placed in DAPI, diluted 1/1000 in PBS, for 5 minutes. Cells were washed in PBS for one minute. SlowFade was added to slides, coverslips were placed face down and sealed with nail polish. […]
substance,measurement,setting,value
methyl sulfone,apoptosis of melanoma cells,"[1]; 6% methyl sulfone, 24 hours",induced into apoptosis
same,apoptosis of M3 cells compared with MES or EES,"[1]; 24 hours, especially at less than 5%",significantly less apoptosis
same,window of concentrations between killing cancer cells and harming normal cells,[1]; conclusion from FIGS. 16 and 17,wide window
same,methyl sulfone concentration at which melanoma cells became apoptotic,"[1]; melanoma cells, FIG. 1 legend",over 2%
same,localization of p27,p27 in melanoma cells,localized in the nuclei
